In US10898469B2, “Imidazolylamide derivative” (Sumitomo Dainippon Pharma Co., Ltd., priority 2016, dated 2021):

What was measured:
[1] = Pharmacokinetic assay in tumor-bearing mice where HCT-116 cells were transplanted (Test Example 3); assay type: in vivo; conditions: female, BALB/cAnNCrlj-nu/nu, plasma, tumor-bearing nude mouse, oral single dose 150 mg/kg, 0.5% methylcellulose
Method: A 7- to 12-week-old nude mouse (BALB/cAnNCrlj-nu/nu, female, CHARLES RIVER LABORATORIES JAPAN, INC.) received intradermal transplantation of human colorectal cancer-derived HCT-116 cells (ATCC) in an amount of 3×10^6 cells/mouse around the ventral part. […] Blood was collected 1, 2, 6, and 24 hours after administration, and centrifuged to afford plasma samples. Methanol was added to the plasma samples so as to be adjusted to 80% of the final concentration. The samples were centrifuged and filtered to be deproteinized. Then, the test compound was detected and quantitated with LC-MS/MS (API4000, AB SCIEX). In quantitation, a calibration curve was prepared with mouse plasma comprising a known amount of the compound and Bezafibrate was used for the internal standard.
The test in Test Example 3 was performed for the compounds of Examples.
The following table and FIGS. 1 to 5 show temporal changes of the plasma concentrations of compounds after oral administration.

HCT-116 cells [2] = assay: Inhibition test for sphere-forming ability of cancer cells (Test Example 1), HCT-116; assay type: cell-based, human; conditions: for IC50: HCT-116 cells, concentration for 50% inhibition of cell proliferation, read-out: IC50 (μmol/L) HCT-116 (Sphere IC50 value); for inhibitory effect on the sphere-forming ability of cancer cells: Test Example 1, summary in words, cell line not given (HCT-116, HT-29, FaDu tested)
In short: (§1)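 Sphere formation, non-adherent, serum-free: 350-800 cells/well, DMEM/F12 + 2% B27, 20 ng/mL EGF, 10 ng/mL bFGF, 5 μg/mL insulin. Compound in 0.1% DMSO final, 4 d. CellTiter-Glo luminescence; IC50 (μmol/L) for 50% inhibition of proliferation.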

HT-29 cells [3] = assay: Inhibition test for sphere-forming ability of cancer cells (Test Example 1), HT-29; assay type: cell-based, human; conditions: concentration for 50% inhibition of cell proliferation, read-out: IC50 (μmol/L) HT-29 (Sphere IC50 value)
In short: as §1

HCT-116 cells [4] = assay: Inhibition test for sphere-forming ability of cancer cells in the presence of BSA (Test Example 2), HCT-116; assay type: cell-based, human; conditions: for IC50: HCT-116 cells, in the presence of 5% BSA, cultured 4 days
In short: (§2)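 Spheres grown 4 days in ultra-low-attachment wells, 350-800 cells/well, in DMEM/F12 with 2% B27, 20 ng/mL EGF, 10 ng/mL bFGF, 5 μg/mL insulin and 5% BSA; 0.1% DMSO final. Viable cells read by CellTiter-Glo luminescence; Sphere IC50 (μmol/L) for 50% proliferation inhibition.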

FaDu cells [5] = assay: Inhibition test for sphere-forming ability of cancer cells (Test Example 1), FaDu; assay type: cell-based, human; conditions: concentration for 50% inhibition of cell proliferation, read-out: IC50 (μmol/L) FaDu (Sphere IC50 value)
In short: as §1

FaDu cells [6] = assay: Inhibition test for sphere-forming ability of cancer cells in the presence of BSA (Test Example 2), FaDu; assay type: cell-based, human; conditions: in the presence of 5% BSA, cultured 4 days
Method: Human colorectal cancer-derived HCT-116 cells, human colon-adenocarcinoma-derived HT-29 cells, and human pharyngeal cancer-derived FaDu cells were available from American Type Culture Collection (ATCC). HCT-116 cells and HT-29 cells were cultured at 37° C. under 5% CO2 using the McCoy's 5a medium containing 10% fetal bovine serum (FBS) and 1% penicillin/streptomycin, and FaDu cells were cultured at 37° C. under 5% CO2 using the MEM medium containing 10% FBS, 1% non-essential amino acid, 1% sodium pyruvate, 5% bovine serum albumin (BSA), and 1% penicillin/streptomycin. HCT-116 cells, HT-29 cells, and FaDu cells were seeded in a 384 Well Black Clear Bottom Ultra-Low Attachment Microplate (Corning Cat. No. 3827) in an amount of 350-800 cells/well using the DMEM/F12 medium containing 2% B27 supplement (GIBCO), 20 ng/mL epidermal growth factor (EGF) (peprotech), 10 ng/mL basic fibroblast growth factor (bFGF) (peprotech), 5 μg/mL insulin (Sigma), 5% bovine serum albumin (BSA), and 1% penicillin/streptomycin. Each test compound was added into each well to adjust the final concentration of DMSO to 0.1%, and the cells were cultured for 4 days. The number of viable cells in each well was then measured with CellTiter-Glo® Luminescent Cell Viability Assay (Promega) to calculate the concentration of each test compound for 50% inhibition of cell proliferation (Sphere IC50 value; μmol/L).
The experiment of Test Example 2 was performed for each compound of each Example.
The concentration of each test compound for 50% inhibition of cell proliferation (Sphere IC50 value; μmol/L) is shown in the following Table.

HT-29 cells [7] = assay: Inhibition test for sphere-forming ability of cancer cells in the presence of BSA (Test Example 2), HT-29; assay type: cell-based, human; conditions: in the presence of 5% BSA, cultured 4 days
In short: as §2

Row | Structure (SMILES) | IC50 (HCT-116 cells [2]; Homo sapiens) | IC50 (HT-29 cells [3]; Homo sapiens) | IC50 (HCT-116 cells [4]; Homo sapiens, HCT-116, 96 h) | IC50 (FaDu cells [5]; Homo sapiens) | IC50 (FaDu cells [6]; Homo sapiens, 96 h) | IC50 (HT-29 cells [7]; Homo sapiens, 96 h) | IC50 (HCT-116 cells [2]) | IC50 (HT-29 cells [3]) | IC50 (HCT-116 cells [4]) | IC50 (FaDu cells [5]) | IC50 (FaDu cells [6]) | IC50 (HT-29 cells [7]) | other results
1 | O=C(/C=C/c1cccnc1)Nc1cn(Cc2cccc(Cl)c2)cn1 [Example 120, (E)-N-(1-(3-chlorobenzyl)-1H-imidazol-4-yl)-3-(pyridin-3-yl)acrylamide] |  |  |  |  |  |  |  |  |  |  |  |  | concentration at 1 h ([1]; 1 hour, read-out: Plasma concentrations after oral administration, 1 hour): 9220 ng/mL; concentration at 2 h ([1]; 2 hours, read-out: Plasma concentrations after oral administration, 2 hours): 7040 ng/mL; concentration at 6 h ([1]; 6 hours, read-out: Plasma concentrations after oral administration, 6 hours): 1200 ng/mL; concentration at 24 h ([1]; 24 hours, read-out: Plasma concentrations after oral administration, 24 hours): 142 ng/mL
2 | O=C(/C=C/C=C/c1ccccc1)Nc1cn(Cc2cccc(Cl)c2)cn1 [Example 46, (2E,4E)-N-(1-(3-Chlorobenzyl)-1H-imidazol-4-yl)-5-phenylpenta-2,4-dienamide] | 2.62 µmol/L | 0.62 µmol/L | > 10000 nM | 0.79 µmol/L | 4670 nM | 7600 nM |  |  |  |  |  |  | 
3 | COc1ccc(C(=O)Nc2cn(Cc3ccc(F)c(F)c3)cn2)cc1OC [Example 151, 3,4-dimethoxy-N-[1-(3,4-difluorobenzyl)-1H-imidazol-4-yl]benzamide] | 0.35 µmol/L | 0.09 µmol/L | 650 nM | 0.31 µmol/L | 330 nM | 550 nM |  |  |  |  |  |  | inhibitory effect on the sphere-forming ability of cancer cells (HCT-116 cells [2]): particularly potent inhibitory effect
4 | O=C(Nc1ccc(Cn2cccn2)cc1)c1cn(Cc2cccc(Cl)c2)cn1 [Example 260] |  |  |  |  |  |  | 0.76 µmol/L | 0.71 µmol/L | 6810 nM | 0.67 µmol/L | 3090 nM | 4090 nM | 
5 | O=C(Nc1ccc2c(O)cccc2c1)c1cn(Cc2cccc(Cl)c2)cn1 [Example 256] |  |  |  |  |  |  | 4.97 µmol/L | 7.24 µmol/L | 6170 nM | 0.65 µmol/L | 4410 nM | 6610 nM | 
6 | COc1ccc(NC(=O)c2cn(Cc3cc(F)c(F)c(F)c3)cn2)cc1OC [Example 251, N-(3,4-Dimethoxyphenyl)-1-(3,4,5-trifluorobenzyl)-1H-imidazole-4-carboxamide] | 0.21 µmol/L | 0.54 µmol/L | 770 nM | 0.43 µmol/L | 550 nM | 600 nM |  |  |  |  |  |  | 
7 | COc1ccc(/C=C/C(=O)Nc2cn(Cc3cc(F)c(F)c(F)c3)cn2)cc1OCCO [Example 32, (E)-3-(3-(2-Hydroxyethoxy)-4-methoxyphenyl)-N-(1-(3,4,5-trifluorobenzyl)-1H-imidazol-4-yl)acrylamide] | 0.06 µmol/L | 0.07 µmol/L | 60 nM | 0.06 µmol/L | 30 nM | 60 nM |  |  |  |  |  |  | inhibitory effect on the sphere-forming ability of cancer cells (HCT-116 cells [2]): particularly potent inhibitory effect; inhibitory effect on the sphere-forming ability of cancer cells (HCT-116 cells [4]; Test Example 2, in the presence of 5% BSA, summary in words, cell line not given (HCT-116, HT-29, FaDu tested)): particularly potent inhibitory effect
8 | COc1ccc(C(=O)Nc2cn(Cc3c(F)ccc(F)c3F)cn2)cc1OC [Example 155] |  |  |  |  |  |  | 3.05 µmol/L | 6.62 µmol/L | > 10000 nM | 8.72 µmol/L | 7030 nM | > 10000 nM | 
9 | COc1ccc(C(=O)Nc2cn(Cc3cc(F)c(F)cc3F)cn2)cc1OC [Example 143, 3,4-Dimethoxy-N-[1-(2,4,5-trifluorobenzyl)-1H-imidazol-4-yl]benzamide] | 0.95 µmol/L | 0.84 µmol/L | 6350 nM | 0.93 µmol/L | 960 nM | 5210 nM |  |  |  |  |  |  | 
10 | COc1ccc(C(=O)Nc2cn(Cc3cccc(F)c3F)cn2)cc1OC [Example 147] |  |  |  |  |  |  | 0.78 µmol/L | 0.83 µmol/L | 6830 nM | 3.12 µmol/L | 910 nM | 5970 nM | 
11 | COc1ccc(C(=O)Nc2cn(Cc3c(F)cccc3F)cn2)cc1OC [Example 150] |  |  |  |  |  |  | 0.69 µmol/L | 3.56 µmol/L | > 10000 nM | 6.21 µmol/L | 7810 nM | > 10000 nM | 
12 | COc1ccc(C(=O)Nc2cn(Cc3cc(F)c(F)c(F)c3F)cn2)cc1OC [Example 156] |  |  |  |  |  |  | 0.54 µmol/L | 0.39 µmol/L | 5070 nM | 0.55 µmol/L | 420 nM | 590 nM | 
13 | CCCC(=O)Nc1ccc(/C=C/C(=O)Nc2cn(Cc3cccc(Cl)c3)cn2)cc1 [Example 6, (E)-N-(4-(3-((1-(3-Chlorobenzyl)-1H-imidazol-4-yl)amino)-3-oxoprop-1-en-1-yl)phenyl)butylamide] | 0.55 µmol/L | 0.18 µmol/L | 830 nM | 0.17 µmol/L | 600 nM | 620 nM |  |  |  |  |  |  | 
14 | COc1ccc(C(=O)Nc2cn(Cc3cc(F)cc(F)c3)cn2)cc1OC [Example 152, 3,4-dimethoxy-N-[1-(3,5-difluorobenzyl)-1H-imidazol-4-yl]benzamide] | 0.09 µmol/L | 0.09 µmol/L | 570 nM | 0.42 µmol/L | 150 nM | 630 nM |  |  |  |  |  |  | inhibitory effect on the sphere-forming ability of cancer cells (HCT-116 cells [2]): particularly potent inhibitory effect
15 | O=C(/C=C/c1ccc(NC(=O)CO)cc1)Nc1cn(Cc2cccc(Cl)c2)cn1 [Example 7, (E)-N-(1-(3-Chlorobenzyl)-1H-imidazol-4-yl)-3-(4-(2-hydroxyacetylamino)phenyl)acrylamide] | 0.66 µmol/L | 0.13 µmol/L | 790 nM | 0.35 µmol/L | 460 nM | 550 nM |  |  |  |  |  |  | 
